Some test systems named below: CAKI-1 renal; DU-145 prostate; HCC-2998 colon; HOP-62 NSCLC; HS 578T breast; M14 melanoma; NCI-H460 lung; RXF 393 renal; SF-539 CNS; SK-MEL-2 melanoma.
What all share (assay): NCI tumour cell line growth inhibition, 48 h

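Protocol summary: plate cells (96-well), add compound at 5 concentrations, incubate 48 h, interpolate endpoints linearly. Here, GI50 denotes the concentration required for 50% inhibition of growth. TGI marks complete inhibition of growth.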

With `COc1cc2c(cc1Nc1nc(Nc3ccsc3C(N)=O)c3cc[nH]c3n1)N(C(=O)CN(C)C)CCC2`, the GI50 in the experiment on CAKI-1 renal was 3.64 µM; in the experiment with DU-145 prostate, 0.481 µM; in the experiment with HCC-2998 colon it was 0.2 µM; in the experiment on HOP-62 NSCLC, 0.917 µM; in the experiment on HS 578T breast, 1.14 µM; with M14 melanoma, 0.592 µM. Further, the GI50 in the experiment on NCI-H460 lung was 0.498 µM; with RXF 393 renal, 0.612 µM; in the experiment on SF-539 CNS it was 0.983 µM; in the experiment on SK-MEL-2 melanoma it was 0.726 µM. In addition, the TGI with CAKI-1 renal was found to be 10.2 µM; in the experiment on DU-145 prostate, 1.64 µM; in the experiment with HCC-2998 colon, 2.27 µM; with HOP-62 NSCLC it was 6.84 µM; in the experiment on HS 578T breast it was 5.42 µM; in the experiment on M14 melanoma, 3.28 µM. Also, the TGI amounted to 3.21 µM in the experiment on NCI-H460 lung, 3.34 µM in the experiment with RXF 393 renal, 4.16 µM with SF-539 CNS and 4.58 µM with SK-MEL-2 melanoma.

Turning to `COc1ccc(C2CC(c3cccc(Nc4ccnc5cc(Cl)ccc45)c3)=NN2c2ccc(Cl)cc2)cc1` (stereo unspecified), the GI50 was 2.38 µM in the experiment with CAKI-1 renal; 28.4 µM with DU-145 prostate; 3.41 µM with HCC-2998 colon; 2.44 µM in the experiment with HOP-62 NSCLC; 14.7 µM in the experiment with HS 578T breast; 0.752 µM in the experiment with M14 melanoma. In addition, the GI50 in the experiment with NCI-H460 lung was 3.04 µM; in the experiment with RXF 393 renal, 17.5 µM; with SF-539 CNS it was 1.8 µM; with SK-MEL-2 melanoma, 11.5 µM. Moreover, the TGI was > 100 µM in the experiment with CAKI-1 renal; > 100 µM with DU-145 prostate; 15.1 µM with HCC-2998 colon; 25.6 µM with HOP-62 NSCLC; > 100 µM in the experiment on HS 578T breast; 11 µM in the experiment on M14 melanoma. The TGI in the experiment with NCI-H460 lung amounted to 17.4 µM; with RXF 393 renal it was 74.8 µM; in the experiment with SF-539 CNS, 4.43 µM; in the experiment with SK-MEL-2 melanoma it was 38.9 µM.

In the case of `COc1c(C)cnc(Cn2cnc3c(Cl)nc(N)nc32)c1C`, the GI50 in the experiment on CAKI-1 renal was 0.397 µM; with DU-145 prostate, 0.0701 µM; with HCC-2998 colon, 0.457 µM; with HOP-62 NSCLC, 0.405 µM; in the experiment with HS 578T breast, 3.53 µM; in the experiment with M14 melanoma it was 0.478 µM. In addition, the GI50 is 0.0974 µM in the experiment on NCI-H460 lung, 0.799 µM with RXF 393 renal, 0.605 µM with SF-539 CNS and 0.434 µM with SK-MEL-2 melanoma. The TGI was > 100 µM in the experiment with CAKI-1 renal; > 100 µM with DU-145 prostate; 10.7 µM in the experiment with HCC-2998 colon; > 100 µM in the experiment with HOP-62 NSCLC; > 100 µM in the experiment on HS 578T breast; > 100 µM in the experiment on M14 melanoma. Further, the TGI in the experiment on NCI-H460 lung is > 100 µM; in the experiment on RXF 393 renal, > 100 µM; in the experiment with SF-539 CNS it was > 100 µM; in the experiment on SK-MEL-2 melanoma it was > 59.5 µM.

For the compound `C#Cc1cccc(NC(=O)Nc2cccc(NC(=O)CCl)c2)c1`, the GI50 in the experiment on CAKI-1 renal is > 82.5 µM; in the experiment on DU-145 prostate it was > 82.5 µM; in the experiment with HCC-2998 colon it was > 82.5 µM; in the experiment on HOP-62 NSCLC, 63.6 µM; with HS 578T breast it was 21.2 µM; in the experiment with M14 melanoma, 23.6 µM. Further, the GI50 was 27.3 µM in the experiment with NCI-H460 lung, 13.4 µM in the experiment with RXF 393 renal, 14 µM in the experiment with SF-539 CNS and 32.7 µM in the experiment with SK-MEL-2 melanoma. In addition, the TGI with CAKI-1 renal, in the experiment with DU-145 prostate, in the experiment with HCC-2998 colon, in the experiment on HOP-62 NSCLC, in the experiment with HS 578T breast and with M14 melanoma was > 82.5 µM throughout. Moreover, the TGI in the experiment on NCI-H460 lung was > 82.5 µM; in the experiment with RXF 393 renal, 63.6 µM; in the experiment with SF-539 CNS, 27.8 µM; in the experiment with SK-MEL-2 melanoma it was > 82.5 µM.

Regarding `C=C1C(=O)O[C@H]2[C@H]1CC/C(Cn1cc(CNC(=O)c3cc4ccccc4[nH]3)nn1)=C\CC[C@@]1(C)O[C@@H]21`, the GI50 in the experiment on CAKI-1 renal is 2.26 µM; in the experiment with DU-145 prostate, 4.07 µM; in the experiment on HCC-2998 colon, 14 µM; in the experiment with HOP-62 NSCLC, 13.3 µM; in the experiment with HS 578T breast, 19 µM; with M14 melanoma, 2.09 µM. Also, the GI50 with NCI-H460 lung was 20.1 µM; in the experiment on RXF 393 renal it was 2.16 µM; in the experiment with SF-539 CNS, 2.85 µM; with SK-MEL-2 melanoma, 6.43 µM. Further, the TGI was 12.2 µM in the experiment on CAKI-1 renal; 15.1 µM in the experiment on DU-145 prostate; 31.5 µM with HCC-2998 colon; 31.3 µM with HOP-62 NSCLC; 55.4 µM in the experiment on HS 578T breast; 6.27 µM with M14 melanoma. Further, the TGI was determined as 41 µM in the experiment with NCI-H460 lung, 4.28 µM with RXF 393 renal, 8.65 µM in the experiment on SF-539 CNS and 23 µM in the experiment on SK-MEL-2 melanoma.

For the compound `COC(=O)c1cc2c([nH]c3ccccc32)c(-c2nc3cc(N(S(=O)(=O)c4ccc(C)cc4)S(=O)(=O)c4ccc(C)cc4)c(OC)cc3cc2CO)n1`, the GI50 was > 100 µM in the experiment with CAKI-1 renal; > 100 µM in the experiment with DU-145 prostate; > 100 µM in the experiment on HCC-2998 colon; 30.6 µM in the experiment with HS 578T breast; > 100 µM in the experiment on M14 melanoma; > 100 µM in the experiment on NCI-H460 lung. The GI50 with RXF 393 renal is > 100 µM; in the experiment on SF-539 CNS, 56.1 µM; in the experiment with SK-MEL-2 melanoma, > 100 µM. Besides, the TGI in the experiment on CAKI-1 renal, with DU-145 prostate, with HCC-2998 colon, in the experiment on HS 578T breast, with M14 melanoma and with NCI-H460 lung was > 100 µM in each case. Besides, the TGI with RXF 393 renal, in the experiment on SF-539 CNS and in the experiment with SK-MEL-2 melanoma was > 100 µM throughout.

Consider `Cn1cnc2nc(Cl)nc(Cl)c21`, for which the GI50 with CAKI-1 renal was 1.08 µM; in the experiment with DU-145 prostate, 1.65 µM; in the experiment on HCC-2998 colon, 3.85 µM; in the experiment with HOP-62 NSCLC, 2.55 µM; in the experiment on HS 578T breast, 2.28 µM; in the experiment with NCI-H460 lung, 2.04 µM. The GI50 in the experiment with RXF 393 renal is 2.39 µM; with SF-539 CNS it was 0.924 µM; in the experiment with SK-MEL-2 melanoma, 2.7 µM. Moreover, the TGI was 3.26 µM in the experiment with CAKI-1 renal; 4.87 µM in the experiment with DU-145 prostate; 15.6 µM with HCC-2998 colon; > 100 µM in the experiment with HOP-62 NSCLC; 7.53 µM with HS 578T breast; 6.12 µM with NCI-H460 lung. In addition, the results for the TGI in the experiment on RXF 393 renal, in the experiment on SF-539 CNS and in the experiment with SK-MEL-2 melanoma were 7.09 µM, 5.53 µM and 10.2 µM, respectively.

The record behind these values is PubChem BioAssay (NCI).
